For series [1] the following is noted: cited from earlier work. The text has this: (§1) Bone targeting Kp-10 ([…] D-Tyr–Asn-(D-Trp)-Asn-Ser-Phe-(azaGly)-Leu-Arg (Me)-Phe-NH2) was designed using six repetitive sequences of aspartate, serine, and serine, which is a bone surface-targeting delivery system as previously described.
For a further series, the system named is GPR54. Also noted: method as in PMID 22975302. To be noted: cited from earlier work.
Description: as §1

A further series has as its system Dusp18 knockout mice. Kind of series: bone and osteoclast parameters in Dusp18 knockout mice. It is filed as in vivo, mouse. Particulars: femur. The text has this:
Data represent means ± SEM. […] Representative results were obtained from at least three independent experiments. Source data are provided as a Source Data file.

A further series concerns FSH and LH. Kind of series: Elisa of serum FSH and LH. It is filed as in vivo, mouse. To be noted: 10 nmol/kg twice per week for two months, versus vehicle; n = 6 per group. The text has this: Supplementary Fig. 16 a Representative image of Von Kossa staining of sham-operated female C57 mice treated with vehicle (Sham, n=4), ovariectomized mice (OVX, n=3), and OVX mice treatment with 1 nmol/kg Kp-10 (n=6),10 nmol/kg Kp-10 (n=6),1 nmol/kg (DSS)*6-Kp-10 (n=5) or 10 nmol/kg (DSS)*6-Kp-10 (n=6) twice one week by intraperitoneal injection for two months. […] BV/TV, bone volume as a fraction of total bone volume; Tb. Th, trabecular thickness; Tb. Sp, trabecular separation; Tb. N, trabecular number. c Elisa assay showing LH, FSH derived from the serum of sham-operated female C57 mice treated with vehicle (Sham+ vehicle) or 10 nmol/kg (DSS)*6-Kp-10 (Sham+10 nmol/kg Kp-10), ovariectomized mice treated with vehicle (OVX+ vehicle) or 10 nmol/kg (DSS)*6-Kp-10 (OVX+ 10 nmol/kg Kp-10) twice one week by intraperitoneal injection for two months. n=6 per group. Error bars are ± SEM. P-values were determined by two-way ANOVA analysis (b, c) ***P <0.001, ****P <0.0001. “ns” means no significant difference. Representative results were observed from at least three independent experiments. Source data are provided as a Source Data file.

The subject of another series is OVX mice. Kind of series: OVX-induced bone loss model (and sham-operated mice). It is filed as in vivo, mouse. An excerpt: Fig. 7 Kp-10 ameliorated OVX-induced bone loss. a, c Representative micro-CT images of femoral trabecular bone (a) and cortical bone (c). Female C57 mice treated with vehicle (Sham) or 50 nmol/kg (DSS)*6-Kp-10, ovariectomized mice (OVX) treated with vehicle or 50nmol/kg (DSS)*6-Kp-10 twice one week by intraperitoneal injection (n = 6 per group). Scale bar, 500 µm. b, d Parameter analysis of femurs from the mice above. BMD bone mineral density, BV/TV bone volume as a fraction of total bone volume, Tb.Th trabecular thickness, Tb.N trabecular number, Tb.Sp trabecular separation. e Representative TRAP staining images of femurs from Fig. 7a. f Histomorphometry analysis of the femurs from Fig. 7a. Oc.S/BS osteoclast surface per bone surface, N.Oc/B.Pm osteoclast bone surface density, ES/BS eroded surface per bone surface. Data represent means ± SEM. P values were determined by one-way ANOVA analysis (b, d, f). Representative results were obtained from at least three independent experiments. Source data are provided as a Source Data file.
3D micro-CT analyses were performed as previously described. We scanned the femur using in vitro X-ray microtomography (Skyscan 1272, Bruker micro CT) at a pixel size of 9 µm, and analyzed the results according to the manufacturer’s instructions. Region-of-interest (ROI) was defined from 10 to 110 image slices, where the growth plate slice was defined as 0 mm. The contrast was defined from 68–255; 3D analysis, BMD, and 3D models were analyzed using CTAn software (Bruker micro CT). 3D models were adjusted in CT Vox software (Bruker micro CT).
Bone tissue was removed of excess tissues and fixed with 4% formalin, decalcified with 0.5 M EDTA for 10–14 days, embedded with paraffin, sectioned, and stained using the TRAP staining kit (Sigma-Aldrich, 387A-1KT). The third lumbar spine vertebrae (L3) were fixed with 4% formalin, sectioned, and subjected to Von Kossa staining as described previously[60],[61]. For double calcian labeling assay, 4−5 week-old mice were administrated calcian (30 μg/mL) through intraperitoneal injection for the first time and the second time after 10 days. The third lumbar spine vertebrae (L3) were fixed with 4% formalin, sectioned, and subjected to Goldner’s Masson trichrome staining, or acquisition of fluorescence images. Histomorphometric measurements were made using the OsteoMeasure Analysis System (Osteometrics, Atlanta, GA, USA) according to standard criteria.
For animal studies in vivo, mice were randomized for weight. For the OVX-induced bone loss model, 2-month-old female C57BL/6 mice were sham-operated (sham) or ovariectomized (OVX) and randomly divided into indicated groups. Vehicle, Kp-10 or (DSS)*6-Kp-10 was injected into the tail vein twice per week. After two months of treatment, the femurs and the L3 lumbrae were isolated for micro-CT or histomorphometric analysis. 3D micro-CT analyses were performed according to a standard protocol. BMD and bone volume were analyzed by CT-analysis software (CTAn, Bruker micro CT, Kontich, Belgium) and images were reconstituted by CT-volume software (CTvol, skyscan, CTAn, Bruker micro CT, Kontich, Belgium).
Supplementary Fig. 16 a Representative image of Von Kossa staining of sham-operated female C57 mice treated with vehicle (Sham, n=4), ovariectomized mice (OVX, n=3), and OVX mice treatment with 1 nmol/kg Kp-10 (n=6),10 nmol/kg Kp-10 (n=6),1 nmol/kg (DSS)*6-Kp-10 (n=5) or 10 nmol/kg (DSS)*6-Kp-10 (n=6) twice one week by intraperitoneal injection for two months. […]

Series [2] concerns GPR54 CT. Kind of series: competitive pull-down assay, His-SRC and His-DUSP18 with GST-GPR54 CT. It is filed as binding, human. Particulars: His-SRC 0 or 0.1 μg, His-DUSP18 0, 0.1 or 0.2 μg. As for the experimental part: Beads were analyzed by phosphatase activity assay (a), mass spectrometry assay (b), IB analysis (c) and quantification of protein levels (d). e, f Protein co-localization was analyzed by IF staining in primary pre-osteoclast with 10 nM Kp-10 treatment for 20 min. […] Scale bar, 50 µm. g, h binding affinity was measured by SPR binding analysis. […] Data represent means ± SEM. P values were determined by one-way ANOVA analysis (a, d, j, l) or two-tailed Student’s t-test (f). Representative results were obtained from at least three independent experiments. Source data are provided as a Source Data file.

Another series deals with Src (Y416). Kind of series: in vitro phosphatase activity assay with Src. It is filed as biochemical, human. To be noted: purified proteins; 30 min at 30 °C; Western blot. As for the experimental part: The C terminus of human GPR54 (H329- L398) and mouse Gpr54 (R331- L396) cDNAs were subcloned into a pGEX-4T2 vector. For purification of full-length WT human DUSP18 and DUSP18 (C104S) proteins, DUSP18 was cloned into pMCSG7 vector. For purification of Src (G85-L536) protein, cDNAs of human Src were subcloned into pFastBac HT B vector with an N-terminal 6xHis tag and expressed in Sf9 cells (Expression Systems) using the Bac-to-Bac Baculovirus Expression System (Invitrogen) for 48 h. For purification of the Src (G85-V247)-GPR54 (333–356 with C338S, C340S mutation) recombinant fusion protein, the C-terminus of GPR54 (333–356 with C338S and C340S mutation) was linked to the C terminus of Src SH3-SH2 domain (G85-V247), which was subcloned into the pMCSG7 vector.
For the total phosphatase activity assay, the Co-IP experiment was carried out after Kp-10 treatment of RAW264.7 cells for 20 min, followed by lysis and incubation with the Gpr54 antibody. The assay was performed according to the phosphatase assay kit (Sigma-Aldrich,17-313). For the DUSP18 phosphatase activity assay, His-DUSP18 and His-DUSP18 (C104S) were purified from E Coli, and His-Src was purified from Sf9 insect cells. His-DUSP18 and His-DUSP18 (C104S) were incubated with His-Src in 1x phosphatase buffer (20 mM HEPES, 20 mM MgCl2, 0.03% β-mercaptoethanol)[51] for 30 min at 30 °C with gentle shaking. […]

Series [3] deals with GPR54 CT. Kind of series: GST pull-down / Co-IP of GPR54 CT with DUSP18, PTPN6 and PPP1CA. To be noted: 293T WCL, DUSP18-Flag, PPP1CA-Flag or PTPN6-Flag. Format: binding, human. As for the experimental part:
Supplementary Fig. 3 a, b SPR binding analysis showing the binding affinity of Src and human GPR54^336-356 peptide (a), Src and human GPR54 ^333-344 peptide (b). c, d Anti-Flag IP derived from 293T cells transfected with HA-Src and GPR54-Flag constructs with Kp-10 (10 nM) stimulation (c) and quantification of protein levels (d). e. e IF staining was carried out using pre-osteoclasts differentiated from BMMs in the presence of M-CSF (10 ng/ml) and RANKL (50 ng/ml) for 2 days. Representative images were shown by TIRF microscopy. f, g IB analysis of total samples and GST pull-downs using GST proteins including GST, GST-GPR54 CT incubated separately with WCL of 293T cells transfected with DUSP18-flag, PPP1CA-Flag or PTPN6-Flag (f), and quantification of protein levels (g). Error bars are ± SEM. P-values were determined by two-tailed Student’s t-test (d) or one-way ANOVA analysis (g). *P <0.05, Representative results were observed from at least three independent experiments. Source data are provided as a Source Data file.

“Also recorded” adds a separate entry of the source. Where no end group is shown, it is not given here. [ ]: non-standard residue; d: D form. azaGly = NNC(=O)O

With “D-Tyr–Asn-(D-Trp)-Asn-Ser-Phe-(azaGly)-Leu-Arg (Me)-Phe-NH2 [Modified Kp-10, Modified Kp-10 designed as previously described]”, the metabolic stability entry in series [1] was “high metabolic stability”. The GPR54 agonistic activity result with GPR54 is reported as “excellent GPR54 agonistic activity”.
Regarding “DSSDSSDSSDSSDSSDSS[dY]N[dW]NSF[azaGly]LR(Me)F-NH2 [(DSS)*6-Kp-10]”, in the series with Dusp18 knockout mice (TRAP staining and osteoclast parameters), the “rescue of Dusp18 deletion induced osteoclast activity” value was “not by (DSS)*6-KP-10”. In addition, the “rescue of Dusp18 deletion induced bone mass change” value in the series with Dusp18 knockout mice (micro-CT and bone parameters, n = 5) was “not by (DSS)*6-KP-10”. Besides, in the series with FSH and LH, the “serum FSH and LH, sham and OVX mice” value is “same level of FSH and LH”. Besides, in the series with OVX mice (50 nmol/kg twice per week, micro-CT, femur, n = 6 per group), the “bone mass, 50 nmol/kg, sham and OVX mice” value is given as “bone mass increased”. Moreover, the “osteoclast activation, 50 nmol/kg, sham and OVX mice” value in the series on OVX mice (50 nmol/kg twice per week, TRAP staining, Oc.S/BS, N.Oc/B.Pm, ES/BS, n = 6 per group) is “suppressed osteoclast activation both in sham-operated and OVX mice”. For the same molecule, the “bone protective effect versus Kp-10” value with OVX mice (OVX mice, 1 or 10 nmol/kg twice per week for two months, Von Kossa staining, trabecular bone parameters) was “rescued OVX induced bone loss more effectively than Kp-10; also recorded: showed better bone protective effect; also recorded: showed better effects than Kp-10 on bone protection”. Besides, in the series with OVX mice (in vivo, OVX-induced bone loss model), the “bone loss / bone protection in vivo (summary statement)” value was “showed bone protection in the OVX-induced bone loss model by inhibiting osteoclast activity; also recorded: protects against bone loss”.

B1: DUSP18: full-length WT human DUSP18 (protein, UniProt Q8NEJ0 1-188, looked up)
chain: MTAPSCAFPVQFRQPSVSGLSQITKSLYISNGVAANNKLMLSSNQITMVINVSVEVVNTLYEDIQYMQVPVADSPNSRLCDFFDPIADHIHSVEMKQGRTLLHCAAGVSRSAALCLAYLMKYHAMSLLDAHTWTKSCRPIIRPNSGFWEQLIHYEFQLFGKNTVHMVSSPVGMIPDIYEKEVRLMIPL
modifications: full-length His tag
With B1, the “competition with Src for binding to GPR54 CT” value in the series on GPR54 CT [2] was “competed with Src for binding to GPR54 CT”. Moreover, in the series with Src (Y416), the “dephosphorylation of Src (Y416)” value is recorded as “potently reduced the phosphorylation of Src (Y416)”. For the same molecule, in the series on GPR54 CT [3], the “interaction with GPR54 among DUSP18, PTPN6 and PPP1CA” value was “had the strongest interaction with GPR54”.

These data come from PMC10861593, “Kisspeptin-10 binding to Gpr54 in osteoclasts prevents bone loss by activating Dusp18-mediated dephosphorylation of Src” (Nature Communications, 2024).
